{"source": "ChEMBL document CHEMBL1143263", "about": "“HY253, a novel compound isolated from Aralia continentalis, induces apoptosis via cytochrome c-mediated intrinsic pathway in HeLa cells” (Bioorg Med Chem Lett, 2009)", "type_in_all_cases": "functional, cell-based", "key": {"[1]": {"test_system": "HeLa", "test": "Induction of apoptosis in human HeLa cells assessed as increase in pro-apoptotic Bak protein at 100 uM after 24 hrs by Western blot"}, "[2]": {"test_system": "HeLa", "test": "Induction of apoptosis in human HeLa cells assessed as cytochrome C release from mitochondria at 100 uM after 24 hrs by confocal microscopy"}, "[3]": {"test_system": "HeLa", "test": "Antiproliferative activity against human HeLa cells after 48 hrs by MTT assay"}, "[4]": {"test_system": "HeLa", "test": "Induction of apoptosis in human HeLa cells assessed as fragmented apoptotic bodies at 100 uM after 24 hrs by DAPI staining"}, "[5]": {"test_system": "HeLa", "test": "Induction of apoptosis in human HeLa cells at 100 uM after 24 hrs by TUNEL assay"}, "[6]": {"test_system": "HeLa", "test": "Induction of apoptosis in human HeLa cells at 100 uM after 48 hrs by TUNEL assay"}, "[7]": {"test_system": "HeLa", "test": "Induction of apoptosis in human HeLa cells assessed as caspase-8 activation at 100 uM by Western blot"}, "[8]": {"test_system": "HeLa", "test": "Induction of apoptosis in human HeLa cells assessed as caspase-9 activation at 100 uM by Western blot"}, "[9]": {"test_system": "HeLa", "test": "Induction of apoptosis in human HeLa cells assessed as caspase-3 activation at 100 uM by Western blot"}, "[10]": {"test_system": "HeLa", "test": "Induction of apoptosis in human HeLa cells assessed as PARP cleavage at 100 uM by Western blot"}, "[11]": {"test_system": "HeLa", "test": "Induction of apoptosis in human HeLa cells assessed as increase in pro-apoptotic Bax protein at 100 uM after 24 hrs by Western blot"}}, "note": "The source made the active and inactive calls. The rule behind the calls is not given here.", "data": [{"smiles": "C=CC1CCC2(O)C(C=C)(C1)CC1(O)CC(O)C=CC12O", "note": "(configuration not stated)", "values": [{"measurement": "Activity", "setting": "[1]", "value": "Active"}, {"measurement": "Activity", "setting": "[2]", "value": "Active"}, {"measurement": "Activity", "setting": "[3]", "value": "Dose-dependent effect"}, {"measurement": "IC50", "setting": "[3]", "value": 81.5, "unit": "µM"}, {"measurement": "Activity", "setting": "[4]", "value": "Active"}, {"measurement": "Activity", "setting": "[5]", "value": "Active"}, {"measurement": "Activity", "setting": "[6]", "value": "Active"}, {"measurement": "Activity", "setting": "[7]", "value": "Active"}, {"measurement": "Activity", "setting": "[8]", "value": "Active"}, {"measurement": "Activity", "setting": "[9]", "value": "Active"}, {"measurement": "Activity", "setting": "[10]", "value": "Active"}, {"measurement": "Activity", "setting": "[11]", "value": "Active"}]}]}
